# Biological target: T1, human factor Xa (Homo sapiens, UniProt P00742)
# T1 construct: purchased Enzyme Research Laboratories
# Assay: chromogenic peptide substrate assay, inhibition of factor Xa
# Format: biochemical
# Settings: human factor Xa 3 nM, chromogenic substrate S-2222, pH 7.8, room temperature; Ki from IC50 by Cheng-Prusoff
# Experimental: Factor Xa activity was measured spectrophotometrically in microtiter plates in a final volume of 150 μl using the following conditions: Inhibition of human factor Xa (Enzyme Research Laboratories) was tested at an enzyme concentration of 3 nM using the chromogenic substrate S-2222 (Chromogenix AB, Molndal, Sweden) at […]. The reaction kinetics of the enzyme and the substrate were linear with both time and the enzyme concentration. The inhibitors were dissolved in DMSO and tested at various concentrations up to 100 μM. The inhibitors were diluted using HNPT buffer consisting of HEPES 100 mM, NaCl 140 mM, PEG 6000 0.1% and Tween 80 0.02%, pH 7.8. The cleavage of S-2222 by human factor Xa was followed at 405 nm for 5 minutes at room temperature. The velocity of the reaction was determined by the autoreader from the slope of the linear regression fit to 7 time points (1 minute). The initial velocity for each inhibitor concentration was determined by the slope of at least 4 time points in the linear phase by a linear regression fit […]. Apparent dissociation constants Ki were calculated according to Cheng and Prusoff [Cheng, Y. C.; Prusoff, W. H. Relationship between the inhibition constant (Ki) and the concentration of the inhibitor that causes 50 percent inhibition (IC50) of an enzyme reaction. Biochem. Pharmacol. 1973, 22, 3099-3108.] based on the IC50 and the respective Km, determined previously (Ki=IC50/(1+S/Km)). The Km for the substrate used was determined under the conditions of the test with at least 5 substrate concentrations ranging from 0.5 to 15 times Km. [Lottenberg R, Hall J A, Blinder M, Binder E P, Jackson C M., The action of thrombin on peptide p-nitroanilide substrates. Substrate selectivity and examination of hydrolysis under different reaction conditions. Biochim Biophys Acta. 1983 Feb. 15; 742(3):539-57]. According to Eadie [Eadie G. S. The inhibition of cholinesterase by physostigmine and prostigmine. J. Biol. Chem. 1942, 146, 85-93.], the Km for S-2222 amounted to 613 μM.
# T1 sequence (P00742 235-488 limits assumed): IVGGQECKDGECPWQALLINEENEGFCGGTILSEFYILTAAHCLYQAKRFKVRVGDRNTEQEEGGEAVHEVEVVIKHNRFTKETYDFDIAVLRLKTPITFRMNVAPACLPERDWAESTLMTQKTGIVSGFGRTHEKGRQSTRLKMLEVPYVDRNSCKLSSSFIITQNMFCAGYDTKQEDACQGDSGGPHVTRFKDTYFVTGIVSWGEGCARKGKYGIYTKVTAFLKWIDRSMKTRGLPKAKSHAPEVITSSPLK
# T1 sequence (P00742 41-179 partner limits assumed): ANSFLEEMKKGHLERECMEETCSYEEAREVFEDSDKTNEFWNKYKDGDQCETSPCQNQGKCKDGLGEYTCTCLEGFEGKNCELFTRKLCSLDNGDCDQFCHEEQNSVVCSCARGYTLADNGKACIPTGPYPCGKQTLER
row,SMILES,Ki
1,"CC(C(=O)Nc1ccc(-n2ccccc2=O)cc1F)N1CC[C@@H](NC(=O)c2ccc(Cl)s2)C1 (stereo partly drawn) [Example 6, 5-chloro-thiophene-2-carboxylic acid ((R)-1-{1-[2-fluoro-4-(2-oxo-pyridin-1-yl)-phenylcarbamoyl]-ethyl}-pyrrolidin-3-yl)-amide]",0.017 µM
2,"CO[C@H]1CN(CC(=O)Nc2ccc(N3CCOCC3=O)cc2F)C[C@@H]1NC(=O)c1ccc(Cl)s1 [Example 26, 5-chloro-thiophene-2-carboxylic acid ((3S,4S)-1-{[2-fluoro-4-(3-oxo-morpholin-4-yl)-phenylcar-bamoyl]-methyl}-4-methoxy-pyrrolidin-3-yl)-amide]",0.014 µM
3,"O=C(NC[C@H]1CCN(C(=O)Nc2ccc(-n3ccccc3=O)cc2F)C1)c1ccc(Cl)s1 [Example 54, (R)-3-{[(5-chloro-thiophene-2-carbonyl)-amino]-methyl}-pyrrolidine-1-carboxylic acid[2-fluoro-4-(2-oxo-2H-pyridin-1-yl)-phenyl]-amide]",0.013 µM
4,"O=C(NC[C@@H]1CN(C(=O)Nc2ccc(-n3ccccc3=O)cc2F)C[C@H]1C(F)(F)F)c1ccc(Cl)s1 [Example 77, (3R,4S)-3-{[(5-chloro-thiophene-2-carbonyl)-amino]-methyl}-4-trifluoromethyl-pyrrolidine-1-carboxy-lic acid[2-fluoro-4-(2-oxo-2H-pyridin-1-yl)-phenyl]-amide]",0.008 µM
5,"CN(C1CN(C(=O)Nc2ccc(-n3ccccc3=O)cc2F)C[C@H]1CNC(=O)c1ccc(Cl)s1)S(C)(=O)=O (stereo partly drawn) [Example 85, (R)-3-{[(5-chloro-thiophene-2-carbonyl)-amino]-methyl}-4-(methanesulfonyl-methyl-amino)-pyrrolidine-1-carboxylic acid[2-fluoro-4-(2-oxo-2H-pyridin-1-yl)-phenyl]-amide]",0.012 µM
